Experimental data: PubChem BioAssay (NCI)
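Dose response: 5 concentrations. Exposure: 48 h. Format: 96-well plates. Endpoint: linear interpolation; highest concentration if not reached. TGI: total growth inhibition.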

Columns and labels:
Experiment in all cases: growth of human tumour cells (NCI), 48 h
786-0 renal = test system: 786-0 renal
A498 renal = test system: A498 renal
A549 NSCLC = test system: A549 NSCLC
ACHN renal = test system: ACHN renal
BT-549 breast = test system: BT-549 breast
CAKI-1 renal = test system: CAKI-1 renal
CCRF-CEM leukemia = test system: CCRF-CEM leukemia
COLO 205 colon = test system: COLO 205 colon
DU-145 prostate = test system: DU-145 prostate
EKVX NSCLC = test system: EKVX NSCLC
HCC-2998 colon = test system: HCC-2998 colon
HCT-116 colon = test system: HCT-116 colon
HCT-15 colon = test system: HCT-15 colon
HL-60(TB) leukemia = test system: HL-60(TB) leukemia
HOP-62 NSCLC = test system: HOP-62 NSCLC
HOP-92 NSCLC = test system: HOP-92 NSCLC
HS 578T breast = test system: HS 578T breast
HT29 colon = test system: HT29 colon
IGROV1 ovarian = test system: IGROV1 ovarian
K-562 leukemia = test system: K-562 leukemia
KM12 colon = test system: KM12 colon
LOX IMVI melanoma = test system: LOX IMVI melanoma
M14 melanoma = test system: M14 melanoma
MALME-3M melanoma = test system: MALME-3M melanoma
MCF7 breast = test system: MCF7 breast
MDA-MB-231 breast = test system: MDA-MB-231 breast
MDA-MB-435 = test system: MDA-MB-435
MDA-N = test system: MDA-N
MOLT-4 leukemia = test system: MOLT-4 leukemia
NCI-H226 lung = test system: NCI-H226 lung
NCI-H23 lung = test system: NCI-H23 lung
NCI-H460 lung = test system: NCI-H460 lung
NCI-H522 lung = test system: NCI-H522 lung
NCI/ADR-RES ovarian = test system: NCI/ADR-RES ovarian
OVCAR-3 ovarian = test system: OVCAR-3 ovarian
OVCAR-4 ovarian = test system: OVCAR-4 ovarian
OVCAR-5 ovarian = test system: OVCAR-5 ovarian
OVCAR-8 ovarian = test system: OVCAR-8 ovarian
PC-3 prostate = test system: PC-3 prostate
RPMI-8226 leukemia = test system: RPMI-8226 leukemia
RXF 393 renal = test system: RXF 393 renal
SF-268 CNS = test system: SF-268 CNS
SF-295 CNS = test system: SF-295 CNS
SF-539 CNS = test system: SF-539 CNS
SK-MEL-2 melanoma = test system: SK-MEL-2 melanoma
SK-MEL-28 melanoma = test system: SK-MEL-28 melanoma
SK-MEL-5 melanoma = test system: SK-MEL-5 melanoma
SK-OV-3 ovarian = test system: SK-OV-3 ovarian
SN12C renal = test system: SN12C renal
SNB-19 CNS = test system: SNB-19 CNS
SNB-75 CNS = test system: SNB-75 CNS
SR leukemia = test system: SR leukemia
SW-620 colon = test system: SW-620 colon
T-47D breast = test system: T-47D breast
TK-10 renal = test system: TK-10 renal
U251 CNS = test system: U251 CNS
UACC-257 melanoma = test system: UACC-257 melanoma
UACC-62 melanoma = test system: UACC-62 melanoma
UO-31 renal = test system: UO-31 renal

CCCCCCCCCC1CC(=O)NCC(=O)NC(C(C)C)C(=O)NC(CC(C)C)C(=O)NC(C)C(=O)NC(C(C)C)C(=O)O1 (stereo not given)
TGI (786-0 renal): 35 µM | TGI (A498 renal): > 55.4 µM | TGI (A549 NSCLC): 40.9 µM | TGI (ACHN renal): > 100 µM | TGI (BT-549 breast): > 100 µM | TGI (CAKI-1 renal): > 100 µM | TGI (CCRF-CEM leukemia): > 56.4 µM | TGI (COLO 205 colon): > 100 µM | TGI (DU-145 prostate): > 74.9 µM | TGI (EKVX NSCLC): > 79.9 µM | TGI (HCC-2998 colon): > 96.2 µM | TGI (HCT-116 colon): > 66.3 µM | TGI (HCT-15 colon): > 100 µM | TGI (HL-60(TB) leukemia): > 100 µM | TGI (HOP-62 NSCLC): 55 µM | TGI (HOP-92 NSCLC): 41.9 µM | TGI (HS 578T breast): 53 µM | TGI (HT29 colon): 21.5 µM | TGI (IGROV1 ovarian): > 100 µM | TGI (K-562 leukemia): > 53.3 µM | TGI (KM12 colon): 33.9 µM | TGI (LOX IMVI melanoma): 30.8 µM | TGI (M14 melanoma): > 100 µM | TGI (MALME-3M melanoma): > 61.9 µM | TGI (MCF7 breast): > 100 µM | TGI (MDA-MB-231 breast): > 38.6 µM | TGI (MDA-MB-435): 49.8 µM | TGI (MDA-N): > 100 µM | TGI (MOLT-4 leukemia): > 52.4 µM | TGI (NCI-H226 lung): > 69.1 µM | TGI (NCI-H23 lung): 42.2 µM | TGI (NCI-H460 lung): 23.6 µM | TGI (NCI-H522 lung): 35.2 µM | TGI (NCI/ADR-RES ovarian): > 100 µM | TGI (OVCAR-3 ovarian): 28.8 µM | TGI (OVCAR-4 ovarian): 25.4 µM | TGI (OVCAR-5 ovarian): > 64 µM | TGI (OVCAR-8 ovarian): 18.2 µM | TGI (PC-3 prostate): 22.4 µM | TGI (RPMI-8226 leukemia): > 86.8 µM | TGI (RXF 393 renal): > 94.9 µM | TGI (SF-268 CNS): 16.1 µM | TGI (SF-295 CNS): 37 µM | TGI (SF-539 CNS): 43.4 µM | TGI (SK-MEL-2 melanoma): > 65.8 µM | TGI (SK-MEL-28 melanoma): 36.6 µM | TGI (SK-MEL-5 melanoma): > 61.6 µM | TGI (SK-OV-3 ovarian): 39.2 µM | TGI (SN12C renal): 80.2 µM | TGI (SNB-19 CNS): > 48.2 µM | TGI (SNB-75 CNS): 18.2 µM | TGI (SR leukemia): > 92.4 µM | TGI (SW-620 colon): > 33.6 µM | TGI (T-47D breast): > 100 µM | TGI (TK-10 renal): 68.9 µM | TGI (U251 CNS): 29.7 µM | TGI (UACC-257 melanoma): > 88 µM | TGI (UACC-62 melanoma): 83.7 µM | TGI (UO-31 renal): > 100 µM

Nc1ncc(CN2CCOCC2)c(-c2ccccc2O)n1
TGI (786-0 renal): > 100 µM | TGI (A498 renal): > 100 µM | TGI (A549 NSCLC): > 100 µM | TGI (ACHN renal): > 100 µM | TGI (BT-549 breast): > 100 µM | TGI (CAKI-1 renal): > 100 µM | TGI (CCRF-CEM leukemia): > 100 µM | TGI (COLO 205 colon): > 100 µM | TGI (DU-145 prostate): > 100 µM | TGI (EKVX NSCLC): > 100 µM | TGI (HCT-116 colon): > 100 µM | TGI (HCT-15 colon): > 100 µM | TGI (HL-60(TB) leukemia): > 100 µM | TGI (HOP-62 NSCLC): > 100 µM | TGI (HOP-92 NSCLC): > 100 µM | TGI (HS 578T breast): > 100 µM | TGI (HT29 colon): > 100 µM | TGI (IGROV1 ovarian): > 100 µM | TGI (K-562 leukemia): > 100 µM | TGI (KM12 colon): > 100 µM | TGI (LOX IMVI melanoma): > 100 µM | TGI (M14 melanoma): > 100 µM | TGI (MALME-3M melanoma): > 100 µM | TGI (MCF7 breast): > 100 µM | TGI (MDA-MB-231 breast): > 100 µM | TGI (MDA-MB-435): > 100 µM | TGI (MDA-N): > 100 µM | TGI (MOLT-4 leukemia): > 100 µM | TGI (NCI-H226 lung): > 100 µM | TGI (NCI-H23 lung): > 100 µM | TGI (NCI-H460 lung): > 100 µM | TGI (NCI/ADR-RES ovarian): > 100 µM | TGI (OVCAR-3 ovarian): > 100 µM | TGI (OVCAR-4 ovarian): > 100 µM | TGI (OVCAR-5 ovarian): > 100 µM | TGI (OVCAR-8 ovarian): > 100 µM | TGI (PC-3 prostate): > 100 µM | TGI (RPMI-8226 leukemia): > 100 µM | TGI (RXF 393 renal): > 100 µM | TGI (SF-268 CNS): > 100 µM | TGI (SF-295 CNS): > 100 µM | TGI (SF-539 CNS): > 100 µM | TGI (SK-MEL-2 melanoma): > 100 µM | TGI (SK-MEL-28 melanoma): > 100 µM | TGI (SK-MEL-5 melanoma): > 100 µM | TGI (SK-OV-3 ovarian): > 100 µM | TGI (SN12C renal): > 100 µM | TGI (SNB-75 CNS): > 100 µM | TGI (SR leukemia): > 100 µM | TGI (SW-620 colon): > 100 µM | TGI (T-47D breast): > 100 µM | TGI (TK-10 renal): > 100 µM | TGI (U251 CNS): > 100 µM | TGI (UACC-257 melanoma): > 100 µM | TGI (UACC-62 melanoma): > 100 µM | TGI (UO-31 renal): > 100 µM
